Reference: patent US20190076406A1, “METHODS AND COMPOSITIONS FOR TREATING CONDITIONS ASSOCIATED WITH ANGIOGENESIS USING A VASCULAR ADHESION PROTEIN-1 (VAP-1) INHIBITOR” (MASSACHUSETTS EYE & EAR INFIRMARY, priority 2007, published 2019)

Key:
[1] = target: T1, rat semicarbazide-sensitive amine oxidase (SSAO) (Rattus norvegicus, UniProt O08590); assay: IC50 against rat SSAO; assay type: biochemical
T1 sequence (O08590 1-763): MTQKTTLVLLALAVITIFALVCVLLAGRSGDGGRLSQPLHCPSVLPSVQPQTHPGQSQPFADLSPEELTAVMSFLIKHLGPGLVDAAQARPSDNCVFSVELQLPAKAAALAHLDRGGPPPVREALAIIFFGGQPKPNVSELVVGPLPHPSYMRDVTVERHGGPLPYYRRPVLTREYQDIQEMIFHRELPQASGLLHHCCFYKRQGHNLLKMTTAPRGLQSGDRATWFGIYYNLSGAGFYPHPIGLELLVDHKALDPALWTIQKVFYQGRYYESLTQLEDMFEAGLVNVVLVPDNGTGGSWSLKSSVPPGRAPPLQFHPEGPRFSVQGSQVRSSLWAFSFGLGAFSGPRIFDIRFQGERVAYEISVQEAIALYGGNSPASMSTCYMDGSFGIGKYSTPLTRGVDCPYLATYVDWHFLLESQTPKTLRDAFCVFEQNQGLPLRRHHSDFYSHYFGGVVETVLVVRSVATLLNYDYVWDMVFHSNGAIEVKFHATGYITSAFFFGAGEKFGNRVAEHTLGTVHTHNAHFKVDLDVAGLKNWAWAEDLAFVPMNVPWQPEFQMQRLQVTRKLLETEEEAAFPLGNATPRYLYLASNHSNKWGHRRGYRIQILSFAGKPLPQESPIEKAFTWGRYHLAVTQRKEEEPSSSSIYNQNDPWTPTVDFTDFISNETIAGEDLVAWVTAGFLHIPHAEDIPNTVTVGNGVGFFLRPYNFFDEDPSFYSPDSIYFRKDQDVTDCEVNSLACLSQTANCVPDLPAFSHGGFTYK

[2] = test system: IL-1β-induced corneal angiogenesis in BALB/c mice; assay: Leukocyte infiltration in IL-1β-implanted cornea (immunostaining); assay type: in vivo, mouse; conditions: 0.3 mg/kg daily i.p.
Method: BALB/c mice were anesthetized by intrapcritoneal (i.p.) injection of pentobarbital sodium (60 mg/kg). Hydron pellets (0.3 μl) containing 30 ng mouse IL-1β (401-ML; R&D Systems) were prepared and implanted into the corneas. Pellets were positioned 1 mm from the corneal limbus. Implanted eyes were treated with Bacitracin ophthalmic ointment (E. Fougera & Co.) to prevent infection.
To block VAP-1, mice received daily i.p. injections of a specific VAP-1 inhibitor, Compound II (R-tech Ueno Ltd., Tokyo, Japan) as described above. A daily dose of 0.3 mg/kg was administered at day 0 and continued until the sixth day after implantation. Two, four and six days after implantation, digital images of the corneal vessels were obtained and recorded using OpenLab software version 2.2.5 (Improvision Inc.) with standardized illumination and contrast and were saved onto disks. The quantitative analysis of new vessel growth in the mouse corneas was performed using Scion Image software (version 4.0.2; Scion Corp.).
Mice were sacrificed under deep anesthesia with pentobarbital sodium (60 mg/kg i.p.). The eyes were harvested, snap-frozen in optimal cutting temperature (OCT) compound (Sakura Finetechnical) and 10 μm sections were prepared, air-dried and fixed in cold acetone for 10 min. The sections were blocked with nonfat dried-milk (M7409; Sigma) for 10 minutes and stained with anti-CD11b mAb (1:100, 550282; BD Pharmingen), anti-Gr-1 mAb (1:100, 550282; BD Pharmingen) or anti-F4/80 mAb (1:100, MCA497G; Scrotec). After an overnight incubation, sections were washed and stained for 20 min. with secondary Abs, FITC-conjugated goat anti-rat (1:100, AP136F; Chemicon International).

[3] = test system: TNF-α; assay: ELISA of TNF-α in RPE-choroid complex after laser injury; assay type: in vivo, rat; conditions: 3 days after laser injury; 0.3 mg/kg daily i.p.; mean±SEM
Method: (§1) Brown-Norway rats were anesthetized with 0.2-0.3 ml of a 50:50 mixture of 100 mg/ml Ketamine and 20 mg/ml Xylazine. Pupils were dilated with 5.0% Phenylephrine and 0.8% Tropicamide. CNV was induced with a 532 nm laser (Oculight GLx, Iridex, Mountain View, Calif.). Six laser spots (150 mW, 100 μm, 100 msec) were placed in each eye using a slit-lamp delivery system and a cover glass as a contact lens. Production of a bubble at the time of laser confirmed the rupture of the Bruch's membrane.
To block VAP-1, a specific VAP-1 inhibitor, Compound II described above, was used (R-tech Ueno, Ltd., Tokyo, Japan). […]
The RPE-choroid complex was carefully isolated from eyes 3 days after photocoagulation and placed in 300 μl of lysis buffer supplemented with protease inhibitors and sonicated. The lysate was centrifuged at 15,000 rpm for 15 minutes at 4° C. and the levels of TNF-α, monocyte chemotactic protein (MCP)-1, and intercellular adhesion molecule (ICAM)-1 were determined with rat TNF-α (BD bioscience), MCP-1 (BD bioscience) and ICAM-1 (R&D Systems, Minneapolis, Minn.) enzyme-linked immunosorbent assay (ELISA) kits according to the manufacturers' protocols. Total protein concentration was determined using a Bio-Rad Protein Assay Kit (Bio-Rad Laboratories Hercules, Calif.) and dilutions of bovine serum albumin (Bio-Rad Laboratories) as standards.

[4] = test system: laser-induced CNV in Brown-Norway rats; assay: Macrophage (ED-1 positive cell) infiltration in CNV lesions; assay type: in vivo, rat; conditions: 3 days after laser injury; vs vehicle; n=4, p<0.05
Method: as §1
To block VAP-1, a specific VAP-1 inhibitor, Compound II described above, was used (R-tech Ueno, Ltd., Tokyo, Japan). After laser injury, the inhibitor (0.3 mg/kg BW) was administered to the animals by daily i.p. injections. As a control, some animals received the same regimen for the vehicle solution alone.
At 1, 3, and 7 days after laser injury and treatment with either VAP-1 inhibitor or vehicle solution, animals were perfused with 200 ml of PBS/kg BW under deep anesthesia. […] The photographs of CNV lesions were taken, and the numbers of ED-1-positive cells were counted. To obtain a quantitative index of macrophage numbers in CNV lesions, an optical density plot of the selected area was generated by a histogram graphing tool in the Photoshop image analysis software (version 6.0; Adobe Systems, Mountain View, Calif.), as described in the literature (for example, Sakurai et al. (2003) IOVS 44: 3578-85). […]

- IC50 [1]: 8 nM
Structure (SMILES): CC(=O)Nc1nc(CCc2ccc(NC(=N)NN)cc2)c(Cc2ccc(S(C)(=O)=O)cc2)s1 [Compound II]
- infiltration of CD11b(+) cells in cornea ([2]; 3 days after pellet implantation): effectively inhibited
- number of F4/80(+) cells in cornea ([2]; IL-1β-implanted cornea): less than in vehicle-treated cornea or untreated cornea
- number of Gr-1(+) cells in cornea ([2]; IL-1β-implanted cornea): less than in vehicle-treated cornea or untreated cornea
- TNF-α protein level in RPE-choroid complex [3]: 360 ± 12 pg/mg
- reduction of number of accumulated macrophages (ED-1 positive cells) in CNV lesions [4]: 41%
